In patent US20240091279A1, “COMBINATION THERAPY FOR INFLAMMATORY DISEASES” (University of lowa Research Foundation, priority 2022, published 2024):
Read-outs that look alike come from different tables or passages of the source.

How the values were obtained:
[1] = tested on: mouse model of MS; experiment: Mouse model of MS, Example I; type: in vivo, mice; conditions: versus diet lacking phytoestrogen
[2] = tested on: experimental autoimmune encephalomyelitis (EAE); conditions: earlier published studies, cited from earlier work
[3] = versus the original isoflavones; cited from earlier work

Oc1ccc([C@H]2COc3cc(O)ccc3C2)cc1 [S-equol]
disease severity [1]: mimic some of the disease protective function
EAE disease [2]: sufficient to ameliorate EAE
EAE disease ([2]; listed as equol): protect
estrogenic activity [3]: significantly higher estrogenic activity

Parabacteroides distasonis
EAE disease [2]: sufficient to ameliorate EAE
